From PubChem BioAssay (NCI)
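Growth conditions: 96-well plates. Treatment: test compound, 48 hours, 5 concentrations. Analysis: linear interpolation between bracketing concentrations; unreached endpoints set to highest concentration. Here, GI50 denotes the concentration required for 50% inhibition of growth. Definition used: TGI = concentration required for complete inhibition of growth.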

Experiments:
Test in all cases: NCI tumour cell line growth inhibition, 48 h
[1] = tested on: SN12C renal
[2] = tested on: RPMI-8226 leukemia
[3] = tested on: KM20L2 colon
[4] = tested on: SK-OV-3 ovarian
[5] = tested on: LOX IMVI melanoma
[6] = tested on: TK-10 renal
[7] = tested on: HT29 colon
[8] = tested on: 786-0 renal
[9] = tested on: HCT-15 colon
[10] = tested on: UACC-62 melanoma
[11] = tested on: OVCAR-8 ovarian
[12] = tested on: UO-31 renal
[13] = tested on: A549 NSCLC
[14] = tested on: HCT-116 colon
[15] = tested on: SNB-78 CNS
[16] = tested on: NCI-H226 lung
[17] = tested on: EKVX NSCLC
[18] = tested on: RXF 393 renal
[19] = tested on: SW-620 colon
[20] = tested on: NCI-H522 lung
[21] = tested on: DLD-1 colon
[22] = tested on: OVCAR-5 ovarian
[23] = tested on: LXFL 529 NSCLC
[24] = tested on: NCI-H460 lung
[25] = tested on: SNB-75 CNS
[26] = tested on: K-562 leukemia
[27] = tested on: HOP-18 NSCLC
[28] = tested on: COLO 205 colon
[29] = tested on: CAKI-1 renal
[30] = tested on: CCRF-CEM leukemia
[31] = tested on: U251 CNS
[32] = tested on: ACHN renal
[33] = tested on: KM12 colon
[34] = tested on: A498 renal
[35] = tested on: SK-MEL-28 melanoma
[36] = tested on: MALME-3M melanoma
[37] = tested on: DMS 273 small cell lung
[38] = tested on: HOP-92 NSCLC
[39] = tested on: HCC-2998 colon
[40] = tested on: SK-MEL-2 melanoma
[41] = tested on: OVCAR-4 ovarian
[42] = tested on: NCI-H23 lung
[43] = tested on: IGROV1 ovarian
[44] = tested on: UACC-257 melanoma
[45] = tested on: SF-268 CNS
[46] = tested on: M14 melanoma
[47] = tested on: SNB-19 CNS
[48] = tested on: SK-MEL-5 melanoma
[49] = tested on: OVCAR-3 ovarian
[50] = tested on: SF-295 CNS
[51] = tested on: DMS 114 small cell lung
[52] = tested on: MOLT-4 leukemia
[53] = tested on: SR leukemia
[54] = tested on: HOP-62 NSCLC
[55] = tested on: M19-MEL melanoma
[56] = tested on: SF-539 CNS

O=c1c(O)c(O)c1=O.[NH2-].[NH2-].[NH2-].[NH2-].[NH2-].[Ru+5]
GI50 [1]: > 100 µM | TGI [1]: > 100 µM | GI50 [2]: > 100 µM | TGI [2]: > 100 µM | GI50 [3]: > 100 µM | TGI [3]: > 100 µM | GI50 [4]: > 100 µM | TGI [4]: > 100 µM | GI50 [5]: > 100 µM | TGI [5]: > 100 µM | GI50 [6]: > 100 µM | TGI [6]: > 100 µM | GI50 [7]: > 100 µM | TGI [7]: > 100 µM | GI50 [8]: > 100 µM | TGI [8]: > 100 µM | GI50 [9]: > 100 µM | TGI [9]: > 100 µM | GI50 [10]: > 100 µM | TGI [10]: > 100 µM | GI50 [11]: > 100 µM | TGI [11]: > 100 µM | GI50 [12]: > 100 µM | TGI [12]: > 100 µM | GI50 [13]: > 100 µM | TGI [13]: > 100 µM | GI50 [14]: > 100 µM | TGI [14]: > 100 µM | GI50 [15]: > 100 µM | TGI [15]: > 100 µM | GI50 [16]: > 100 µM | TGI [16]: > 100 µM | GI50 [17]: > 100 µM | TGI [17]: > 100 µM | GI50 [18]: > 100 µM | TGI [18]: > 100 µM | GI50 [19]: > 100 µM | TGI [19]: > 100 µM | GI50 [20]: > 100 µM | TGI [20]: > 100 µM | GI50 [21]: > 100 µM | TGI [21]: > 100 µM | GI50 [22]: > 100 µM | TGI [22]: > 100 µM | GI50 [23]: > 100 µM | TGI [23]: > 100 µM | GI50 [24]: > 100 µM | TGI [24]: > 100 µM | GI50 [25]: > 100 µM | TGI [25]: > 100 µM | GI50 [26]: > 100 µM | TGI [26]: > 100 µM | GI50 [27]: > 100 µM | TGI [27]: > 100 µM | GI50 [28]: > 100 µM | TGI [28]: > 100 µM | GI50 [29]: > 100 µM | TGI [29]: > 100 µM | GI50 [30]: > 100 µM | TGI [30]: > 100 µM | GI50 [31]: > 100 µM | TGI [31]: > 100 µM | GI50 [32]: > 100 µM | TGI [32]: > 100 µM | GI50 [33]: > 100 µM | TGI [33]: > 100 µM | GI50 [34]: > 100 µM | TGI [34]: > 100 µM | GI50 [35]: > 100 µM | TGI [35]: > 100 µM | GI50 [36]: > 100 µM | TGI [36]: > 100 µM | GI50 [37]: > 100 µM | TGI [37]: > 100 µM | GI50 [38]: > 100 µM | TGI [38]: > 100 µM | GI50 [39]: > 100 µM | TGI [39]: > 100 µM | GI50 [40]: > 100 µM | TGI [40]: > 100 µM | GI50 [41]: > 100 µM | TGI [41]: > 100 µM | GI50 [42]: > 100 µM | TGI [42]: > 100 µM | GI50 [43]: > 100 µM | TGI [43]: > 100 µM | GI50 [44]: > 100 µM | TGI [44]: > 100 µM | GI50 [45]: > 100 µM | TGI [45]: > 100 µM | GI50 [46]: > 100 µM | TGI [46]: > 100 µM | GI50 [47]: > 100 µM | TGI [47]: > 100 µM

COc1cc(/C=N/N=C(\N)NO)cc(Cl)c1O
TGI [1]: > 100 µM | TGI [2]: > 100 µM | TGI [48]: > 100 µM | TGI [4]: > 100 µM | TGI [5]: > 100 µM | TGI [7]: > 100 µM | TGI [8]: > 100 µM | TGI [9]: > 100 µM | TGI [10]: > 100 µM | TGI [11]: > 100 µM | TGI [12]: > 100 µM | TGI [13]: > 100 µM | TGI [14]: > 100 µM | TGI [15]: > 100 µM | TGI [16]: 81.6 µM | TGI [17]: > 100 µM | TGI [49]: > 100 µM | TGI [50]: > 100 µM | TGI [51]: > 100 µM | TGI [52]: > 100 µM | TGI [18]: 61.7 µM | TGI [19]: > 100 µM | TGI [20]: > 100 µM | TGI [21]: > 100 µM | TGI [22]: > 100 µM | TGI [53]: > 100 µM | TGI [23]: > 100 µM | TGI [54]: > 100 µM | TGI [24]: > 100 µM | TGI [26]: > 100 µM | TGI [27]: 88.5 µM | TGI [28]: > 100 µM | TGI [29]: > 100 µM | TGI [30]: > 100 µM | TGI [31]: > 100 µM | TGI [32]: > 100 µM | TGI [33]: > 100 µM | TGI [55]: > 100 µM | TGI [34]: > 100 µM | TGI [35]: > 100 µM | TGI [36]: > 100 µM | TGI [38]: > 100 µM | TGI [39]: > 100 µM | TGI [40]: > 100 µM | TGI [41]: > 100 µM | TGI [42]: > 100 µM | TGI [43]: > 100 µM | TGI [44]: > 100 µM | TGI [45]: > 100 µM | TGI [46]: > 100 µM | TGI [56]: > 100 µM | TGI [47]: > 100 µM
